Results from patent US20260356860A1, “2-SUBSTITUTED 3,4A,5,7,8,8A-HEXAHYDRO-4H-THIOPYRANO[4,3-DJPYRIMIDIN-4-ONES FOR WOUND TREATMENT” (priority 2022, published 2026).

What was measured:
Assay type in all cases: cell-based
[1] = system: bacteria; assay: Bacteriostasis: growth inhibition over the panel of bacteria; details: 72 h
Description: In order to assess the log reduction capabilities of compounds of Formula (1), testing was performed on organisms that are found in acute and chronic wounds. Triplicate tubes were prepared for each bacteria using 50 μL of inoculum (about 1×10^6 CFU/mL) which was added to 450 μL of compound solution (compound of Formula (I)) (or 100 μL of inoculum in 900 μL of compound solution), resulting in a final inoculum of about 1×10^5 CFU/mL, as shown in Table 4.
Tubes were mixed with a vortex and then incubated in a shaking incubator at 175 RPM and 35° C. to 37° C.
For Compounds 1, 7, 8, 10, and 18 in Tables 6, 7-A, 7-B, 8, 9, 10-A, 10-B, and 11: The compound solutions were prepared with compound (30 mg), polysorbate 20 (1.6 mL), butylene glycol (1.6 mL), phosphatidyl choline (0.66 g), ethanol (1.6 mL), hydroxypropyl cellulose (0.26 g), and ultra pure water (24.9 mL).
Testing was performed at two time points: 18 to 24 hours, and […].

[2] = system: E. faecalis (derived from ATCC ® 19433 ™); assay: Bacteriostasis, log reduction; details: E. faecalis ATCC 19433
[3] = system: S. pyogenes (derived from ATCC ® 19615 ™); assay: Bacteriostasis, log reduction; details: S. pyogenes ATCC 19615

## O=c1[nH]c(-c2ccc(B(O)O)cc2)nc2c1CSCC2 [Compound 1, (4-(4-oxo-3,5,7,8-tetrahydro-4H-thiopyrano[4,3-d]pyrimidin-2-yl)phenyl)boronic acid]
[1]; test 1
  number of bacteria with inhibited growth: 6 of 7
[1]; test 2
  number of bacteria with inhibited growth: 7 of 7
[2]; 24 h
  Average result: 1.1 × 10^3
  Log Reduction: 1.8
  Log Value: 3.0
[2]; 72 h
  Average result: 1.1 × 10^4
  Log Reduction: 0.7
  Log Value: 4.1
[3]; 24 h
  Average result: <200
  Log Reduction: >3.2
  Log Value: <2.3
[3]; 72 h
  Average result: <200
  Log Reduction: >3.2
  Log Value: <2.3

## O=c1[nH]c(-c2ccc(-c3ccc(Br)nc3)cc2)nc2c1CSCC2 [Compound 7, 2-(4-(6-bromopyridin-3-yl)phenyl)-3,5,7,8-tetrahydro-4H-thiopyrano [4,3-d]pyrimidin-4-one]
[1]
  number of bacteria with inhibited growth: 4 of 7
[2]; 24 h
  Average result: 9.3 × 10^5
  Log Reduction: No
  Log Value: 6.0
[2]; 72 h
  Average result: 6.9 × 10^5
  Log Reduction: No
  Log Value: 5.8

## CC(C)(OCCO)c1ccc(-c2nc3c(c(=O)[nH]2)CSCC3)cc1 [Compound 8, 2-(4-(2-(2-hydroxyethoxy)propan-2-yl)phenyl)-3,5,7,8-tetrahydro-4H-thiopyrano[4,3-d]pyrimidin-4-one]
[1]
  number of bacteria with inhibited growth: 5 of 7
[2]; 24 h
  Average result: 3.4 × 10^5
  Log Reduction: No
  Log Value: 5.5
[2]; 72 h
  Average result: 6.5 × 10^4
  Log Reduction: No
  Log Value: 4.8

## O=c1[nH]c(-c2ccc(-c3ccc(B(O)O)cc3)cc2)nc2c1CSCC2 [Compound 10, (4′-(4-oxo-3,5,7,8-tetrahydro-4H-thiopyrano[4,3-d]pyrimidin-2-yl)-[1,1′-biphenyl]-4-yl)boronic acid]
[1]; test 1
  number of bacteria with inhibited growth: 7 of 7
[1]; test 2
  number of bacteria with inhibited growth: 7 of 7
[2]; 24 h
  Average result: 2.9 × 10^4
  Log Reduction: 0.3
  Log Value: 4.5
[2]; 72 h
  Average result: <200
  Log Reduction: >2.5
  Log Value: <2.3
[3]; 24 h
  Average result: <200
  Log Reduction: >3.2
  Log Value: <2.3
[3]; 72 h
  Average result: <200
  Log Reduction: >3.2
  Log Value: <2.3

## COC(=O)NCCOC(C)(C)c1ccc(-c2nc3c(c(=O)[nH]2)CSCC3)cc1 [Compound 18, methyl (2-((2-(4-(4-oxo-3,5,7,8-tetrahydro-4H-thiopyrano[4,3-d]pyrimidin-2-yl)phenyl)propan-2-yl)oxy)ethyl)carbamate]
[1]; test 1
  number of bacteria with inhibited growth: 14 of 15
[2]; 24 h
  Average result: 2.7 × 10^5
  Log Reduction: No
  Log Value: 5.4
[2]; 72 h
  Average result: 1.9 × 10^5
  Log Reduction: No
  Log Value: 5.3
[3]; 24 h
  Average result: <200
  Log Reduction: >3.2
  Log Value: <2.3
[3]; 72 h
  Average result: <200
  Log Reduction: >3.2
  Log Value: <2.3
